ChEMBL document CHEMBL1201862, “PubChem BioAssay data set” (2004)
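The compound was tested at five concentrations on cells cultured in 96-well plates, with a 48-hour exposure period. GI50 = concentration required for 50% inhibition of growth.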 Calls of active or inactive are those of the source. Rule as the data show it: active = GI50 up to about 1.1 µM and inactive = higher.

Columns and labels:
Test in all cases: inhibition of tumour cell growth, NCI panel, 48 h
786-0 = tested on: 786-0
BT-549 = tested on: BT-549
DU-145 = tested on: DU-145
EKVX = tested on: EKVX
HCC 2998 = tested on: HCC 2998
HCT-15 = tested on: HCT-15
HOP-92 = tested on: HOP-92
K562 = tested on: K562
MDA-MB-231 = tested on: MDA-MB-231
Malme-3M = tested on: Malme-3M
NCI-H460 = tested on: NCI-H460
NCI/ADR-RES = tested on: NCI/ADR-RES
OVCAR-8 = tested on: OVCAR-8
RXF 393 = tested on: RXF 393
SK-MEL-28 = tested on: SK-MEL-28
SK-MEL-5 = tested on: SK-MEL-5
SW-620 = tested on: SW-620
T47D = tested on: T47D
UACC-62 = tested on: UACC-62
HL-60 = tested on: HL-60

Compound: C[C@@H]1OC(=O)C[C@H]2CC(=O)N(CCc3cn(S(=O)(=O)C(F)(F)F)c4ccccc34)C[C@@H]21
- GI50 (786-0): > 100 µM (inactive)
- GI50 (BT-549): > 100 µM (inactive)
- GI50 (DU-145): > 100 µM (inactive)
- GI50 (EKVX): > 100 µM (inactive)
- GI50 (HCC 2998): > 100 µM (inactive)
- GI50 (HCT-15): > 100 µM
- GI50 (HOP-92): > 100 µM (inactive)
- GI50 (K562): > 100 µM (inactive)
- GI50 (MDA-MB-231): > 100 µM (inactive)
- GI50 (Malme-3M): > 100 µM (inactive)
- GI50 (NCI-H460): > 100 µM (inactive)
- GI50 (NCI/ADR-RES): > 100 µM (inactive)
- GI50 (OVCAR-8): > 100 µM (inactive)
- GI50 (RXF 393): > 100 µM (inactive)
- GI50 (SK-MEL-28): > 100 µM (inactive)
- GI50 (SK-MEL-5): > 100 µM (inactive)
- GI50 (SW-620): > 100 µM (inactive)
- GI50 (T47D): > 100 µM (inactive)
- GI50 (UACC-62): > 100 µM (inactive)

Compound: CCOC(=O)[C@@H]1C[C@@H]1c1ccc(O)c(O)c1
- GI50 (786-0): 16.1 µM (inactive)
- GI50 (BT-549): 19.7 µM (inactive)
- GI50 (DU-145): 64 µM (inactive)
- GI50 (EKVX): 38.6 µM (inactive)
- GI50 (HCC 2998): 24.9 µM (inactive)
- GI50 (HCT-15): 45.5 µM
- GI50 (HOP-92): 36.7 µM (inactive)
- GI50 (K562): 13.8 µM (inactive)
- GI50 (MDA-MB-231): 11 µM (inactive)
- GI50 (Malme-3M): 49.2 µM (inactive)
- GI50 (NCI-H460): 58.9 µM (inactive)
- GI50 (NCI/ADR-RES): 46.6 µM (inactive)
- GI50 (OVCAR-8): 21.8 µM (inactive)
- GI50 (RXF 393): 21.1 µM (inactive)
- GI50 (SK-MEL-28): 30.8 µM (inactive)
- GI50 (SK-MEL-5): 14.4 µM (inactive)
- GI50 (SW-620): 14.3 µM (inactive)
- GI50 (T47D): 16 µM (inactive)
- GI50 (UACC-62): 13.4 µM (inactive)

Compound: N#Cc1cnc(N)nc1NCC1(CO)CC(CCc2ccccc2)C1 (stereo not drawn)
- GI50 (786-0): > 85.5 µM (inactive)
- GI50 (BT-549): > 100 µM (inactive)
- GI50 (DU-145): > 100 µM (inactive)
- GI50 (EKVX): 35.2 µM (inactive)
- GI50 (HCC 2998): > 100 µM (inactive)
- GI50 (HCT-15): > 100 µM
- GI50 (HOP-92): 19.7 µM (inactive)
- GI50 (K562): 2.51 µM (inactive)
- GI50 (MDA-MB-231): 56.2 µM (inactive)
- GI50 (Malme-3M): > 100 µM (inactive)
- GI50 (NCI-H460): > 100 µM (inactive)
- GI50 (NCI/ADR-RES): 9.95 µM (inactive)
- GI50 (OVCAR-8): 47.3 µM (inactive)
- GI50 (RXF 393): 49 µM (inactive)
- GI50 (SK-MEL-28): > 100 µM (inactive)
- GI50 (SK-MEL-5): 1.72 µM (inactive)
- GI50 (SW-620): > 100 µM (inactive)
- GI50 (T47D): 0.301 µM (active)
- GI50 (UACC-62): > 100 µM (inactive)

Compound: C=CCCC1CCCCNC1=S (stereo not drawn)
- GI50 (786-0): > 10 µM (inactive)
- GI50 (BT-549): > 10 µM (inactive)
- GI50 (DU-145): > 10 µM (inactive)
- GI50 (EKVX): > 10 µM (inactive)
- GI50 (HCC 2998): > 10 µM (inactive)
- GI50 (HCT-15): > 10 µM
- GI50 (HL-60): > 10 µM (inactive)
- GI50 (K562): > 10 µM (inactive)
- GI50 (MDA-MB-231): > 10 µM (inactive)
- GI50 (Malme-3M): > 10 µM (inactive)
- GI50 (NCI-H460): > 10 µM (inactive)
- GI50 (NCI/ADR-RES): > 10 µM (inactive)
- GI50 (OVCAR-8): > 10 µM (inactive)
- GI50 (RXF 393): > 10 µM (inactive)
- GI50 (SK-MEL-28): > 10 µM (inactive)
- GI50 (SK-MEL-5): > 10 µM (inactive)
- GI50 (SW-620): > 10 µM (inactive)
- GI50 (T47D): > 10 µM (inactive)
- GI50 (UACC-62): > 10 µM (inactive)

Compound: O=C(/C=C\c1ccsc1)c1ccccc1
- GI50 (786-0): 7.21 µM (inactive)
- GI50 (BT-549): 12.6 µM (inactive)
- GI50 (DU-145): 12.8 µM (inactive)
- GI50 (EKVX): 12.9 µM (inactive)
- GI50 (HCC 2998): 9.44 µM (inactive)
- GI50 (HCT-15): 3.61 µM
- GI50 (HL-60): 0.182 µM (active)
- GI50 (HOP-92): 17.6 µM (inactive)
- GI50 (K562): 4 µM (inactive)
- GI50 (MDA-MB-231): 4.17 µM (inactive)
- GI50 (NCI-H460): 11.4 µM (inactive)
- GI50 (NCI/ADR-RES): 12.3 µM (inactive)
- GI50 (OVCAR-8): 8.99 µM (inactive)
- GI50 (RXF 393): 5.75 µM (inactive)
- GI50 (SK-MEL-28): 12.4 µM (inactive)
- GI50 (SK-MEL-5): 13.8 µM (inactive)
- GI50 (SW-620): 2.91 µM (inactive)
- GI50 (T47D): 5.31 µM (inactive)
- GI50 (UACC-62): 12.2 µM (inactive)

Compound: CCOC(=O)c1c(N2CCOCC2)[nH]c(=O)c(C(c2ccco2)c2c(O)c(C(=O)OCC)c(N3CCOCC3)[nH]c2=O)c1O
- GI50 (786-0): > 100 µM (inactive)
- GI50 (BT-549): > 100 µM (inactive)
- GI50 (DU-145): > 100 µM (inactive)
- GI50 (EKVX): > 100 µM (inactive)
- GI50 (HCC 2998): > 100 µM (inactive)
- GI50 (HCT-15): > 100 µM
- GI50 (HOP-92): 80.9 µM (inactive)
- GI50 (K562): > 100 µM (inactive)
- GI50 (MDA-MB-231): > 100 µM (inactive)
- GI50 (Malme-3M): > 100 µM (inactive)
- GI50 (NCI-H460): > 100 µM (inactive)
- GI50 (NCI/ADR-RES): > 100 µM (inactive)
- GI50 (OVCAR-8): > 100 µM (inactive)
- GI50 (RXF 393): > 100 µM (inactive)
- GI50 (SK-MEL-28): > 100 µM (inactive)
- GI50 (SK-MEL-5): > 100 µM (inactive)
- GI50 (SW-620): > 100 µM (inactive)
- GI50 (T47D): > 100 µM (inactive)
- GI50 (UACC-62): > 100 µM (inactive)

Compound: CC(C)(C)OC(=O)/C=C/[C@@H](CCC(=O)/C=C/[C@H](/C=C\CCCC(=O)O)NC1(c2ccccc2)c2ccccc2-c2ccccc21)O[Si](C)(C)C(C)(C)C
- GI50 (786-0): 16.1 µM (inactive)
- GI50 (BT-549): 16.5 µM (inactive)
- GI50 (DU-145): 16.6 µM (inactive)
- GI50 (EKVX): 19.2 µM (inactive)
- GI50 (HCC 2998): 16.8 µM (inactive)
- GI50 (HCT-15): 12.3 µM
- GI50 (HL-60): 24.8 µM (inactive)
- GI50 (HOP-92): 4.8 µM (inactive)
- GI50 (K562): 16 µM (inactive)
- GI50 (MDA-MB-231): 14.1 µM (inactive)
- GI50 (NCI-H460): 17.6 µM (inactive)
- GI50 (NCI/ADR-RES): 10.8 µM (inactive)
- GI50 (OVCAR-8): 18.1 µM (inactive)
- GI50 (RXF 393): 11.5 µM (inactive)
- GI50 (SK-MEL-28): 25.8 µM (inactive)
- GI50 (SK-MEL-5): 16.9 µM (inactive)
- GI50 (SW-620): 26.9 µM (inactive)
- GI50 (T47D): 12.6 µM (inactive)
- GI50 (UACC-62): 13.9 µM (inactive)
